This test concerns P388 leukemia ip, CD2F1 mice, survival T/C. Briefly: NCI In Vivo Anticancer Drug Screen. Data for tumor model P388 Leukemia (intraperitoneal) in CD2F1 (CDF1) mice. Conditions: endpoint: median survival time, higher = longer survival. Summed up: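 Mice carrying the transplanted tumor received test compound or vehicle. Survival was recorded in each group, and the value is the treated-group measurement divided by that of the vehicle-treated control group.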

Where [1] appears, read: dose: 100.0 mg/kg/injection, schedule: Q04DX002 (ip), vehicle: saline with Tween-80.
Setting [2] is: dose: 200.0 mg/kg/injection, schedule: Q04DX002 (ip), vehicle: saline with Tween-80.
Setting [3] is: dose: 60.0 mg/kg/injection, schedule: Q01DX005 (ip), vehicle: saline with Tween-80.
The mark [4] stands for this setting: dose: 120.0 mg/kg/injection, schedule: Q01DX005 (ip), vehicle: saline with Tween-80.
The mark [5] stands for this setting: dose: 240.0 mg/kg/injection, schedule: Q01DX005 (ip), vehicle: saline with Tween-80.
Setting [6] is: dose: 50.0 mg/kg/injection, schedule: Q01DX005 (ip), vehicle: saline with Tween-80.
The mark [7] stands for this setting: dose: 100.0 mg/kg/injection, schedule: Q01DX005 (ip), vehicle: saline with Tween-80.
[8] abbreviates: dose: 200.0 mg/kg/injection, schedule: Q01DX005 (ip), vehicle: saline with Tween-80.
Setting [9] is: dose: 200.0 mg/kg/injection, schedule: Q01DX005 (ip), vehicle: saline.
[10] abbreviates: dose: 60.0 mg/kg/injection, schedule: Q01DX005 (ip), vehicle: saline.
[11] abbreviates: dose: 120.0 mg/kg/injection, schedule: Q01DX005 (ip), vehicle: saline.
The mark [12] stands for this setting: dose: 240.0 mg/kg/injection, schedule: Q01DX005 (ip), vehicle: saline.
Setting [13] is: dose: 100.0 mg/kg/injection, schedule: Q01DX009 (ip), vehicle: saline.
The mark [14] stands for this setting: dose: 25.0 mg/kg/injection, schedule: Q01DX009 (ip), vehicle: Klucel (hydroxypropylcellulose) (HPC).
Setting [15] is: dose: 100.0 mg/kg/injection, schedule: Q01DX009 (ip), vehicle: Klucel (hydroxypropylcellulose) (HPC).

The structures appear in SMILES notation. Where “and” joins values, the source holds several entries; their conditions need not be identical. Equal entries are not always repeated. Toxic doses and inconclusive results are not listed.

Consider `CC(=O)Nc1sccc1S(=O)(=O)c1ccsc1NC(C)=O`, for which the T/C was 100 % of control under setting [1]; 105 % of control under setting [2]; 98 % of control (dose: 400.0 mg/kg/injection, schedule: Q04DX002 (ip), vehicle: saline with Tween-80).

`O=S(=O)(c1cccc(C(F)(F)F)c1)N(CCCCN(S(=O)(=O)c1cccc(C(F)(F)F)c1)S(=O)(=O)c1cccc(C(F)(F)F)c1)S(=O)(=O)c1cccc(C(F)(F)F)c1`: the T/C runs as follows: under setting [3], 97 % of control; under setting [4], 93 % of control; under setting [5], 90 % of control.

As to `CCOC(=O)C1C2(C)NC(=O)C1(Cc1ccccc1)c1cc(C)c(C)cc1O2` (stereo unspecified), the T/C is, setting by setting: under setting [6], 99 % of control; under setting [7], 96 % of control; under setting [8], 87 % of control.

On to `CCNC(=O)CCC(NS(=O)(=O)c1ccc(NC(C)=O)cc1)C(=O)O` (stereo unspecified), for which the T/C runs as follows: (dose: 100.0 mg/kg/injection, schedule: Q04DX002 (ip), vehicle: Klucel (hydroxypropylcellulose) (HPC)) 91 % of control; (dose: 200.0 mg/kg/injection, schedule: Q04DX002 (ip), vehicle: Klucel (hydroxypropylcellulose) (HPC)) 107 % of control; (dose: 400.0 mg/kg/injection, schedule: Q04DX002 (ip), vehicle: Klucel (hydroxypropylcellulose) (HPC)) 92 % of control.

For the molecule `C=NC1C=CCC=C1`, the T/C is, setting by setting: under setting [1], 112 % of control; under setting [2], 91 % of control.

For the molecule `CC1=NN(C(=O)CC(=O)Nc2ccc(C(=O)O)cc2)C(=O)C1N=Nc1ccccc1` (stereo unspecified), the T/C was 105 % of control (dose: 50.0 mg/kg/injection, schedule: Q01DX005 (ip), vehicle: saline); 102 % of control (dose: 100.0 mg/kg/injection, schedule: Q01DX005 (ip), vehicle: saline); 108 % of control under setting [9].

Take `O=C(OCCO)c1ccccc1-c1c2cc3cc(Br)c(O)c(Br)c3oc-2c(Br)c(=O)c1Br`: the T/C is 100 % of control under setting [10], 94 % of control under setting [11] and 105 % of control under setting [12].

Take `CCC(=O)Cc1nc2n(c1O)C(=N)N=N2`: the T/C runs as follows: under setting [10], 98 % of control; under setting [11], 98 % of control; under setting [12], 98 % of control.

With `CC(C)SC(=S)Nc1cc(C(F)(F)F)ccc1Cl`, the T/C is 100 % of control (dose: 50.0 mg/kg/injection, schedule: Q01DX009 (ip), vehicle: saline); 101 % of control under setting [13]; 99 % of control (dose: 200.0 mg/kg/injection, schedule: Q01DX009 (ip), vehicle: saline).

In the case of `C/C(C(=O)c1ccccc1)=C1/NC(C)(C)CO1`, the T/C was 101 % of control under setting [3], 103 % of control under setting [4] and 101 % of control under setting [5].

As for `Nc1nc(Cl)nc2c1ncn2C1OC(CO)C(O)C1F` (stereo unspecified), the T/C reads like this: (dose: 12.5 mg/kg/injection, schedule: Q01DX005 (ip), vehicle: saline) 122 % of control; under setting [9], 159 % of control.

Regarding `Clc1ccc(C(CCc2ccc(Br)cc2)Cn2ccnc2)c(Cl)c1` (stereo unspecified), the T/C runs as follows: (dose: 25.0 mg/kg/injection, schedule: Q01DX009 (ip), vehicle: saline with Tween-80) 88 % of control; (dose: 50.0 mg/kg/injection, schedule: Q01DX009 (ip), vehicle: saline with Tween-80) 87 % of control.

Consider `O=S(=O)(c1ccc(N=C=S)cc1)c1ccc(N=C=S)cc1`, for which the T/C (dose: 25.0 mg/kg/injection, schedule: Q01DX005 (ip), vehicle: Klucel (hydroxypropylcellulose) (HPC)) was 112 % of control.

Take `COC(=O)/C=N/NS(=O)(=O)c1ccc(C)cc1`: the T/C (dose: 12.5 mg/kg/injection, schedule: Q01DX009 (ip), vehicle: other) is 102 % of control; the T/C (dose: 25.0 mg/kg/injection, schedule: Q01DX009 (ip), vehicle: other) is 102 % of control; the T/C (dose: 50.0 mg/kg/injection, schedule: Q01DX009 (ip), vehicle: other) is 100 % of control; the T/C (dose: 100.0 mg/kg/injection, schedule: Q01DX009 (ip), vehicle: other) was 100 % of control.

Regarding `CN1c2c(nc(N)[nH]c2=O)NCC1CCNc1ccc(C(=O)NC(CCC(=O)O)C(=O)O)cc1` (stereo unspecified), the T/C under setting [14] is 115 % of control; the T/C (dose: 50.0 mg/kg/injection, schedule: Q01DX009 (ip), vehicle: Klucel (hydroxypropylcellulose) (HPC)) is 115 % of control; the T/C (dose: 75.0 mg/kg/injection, schedule: Q01DX005 (ip), vehicle: saline) was 100 % of control; the T/C (dose: 75.0 mg/kg/injection, schedule: Q01DX005 (iv), vehicle: saline) is 100 % of control; the T/C (dose: 75.0 mg/kg/injection, schedule: Q01DX009 (ip), vehicle: saline) is 105 % of control; the T/C (dose: 75.0 mg/kg/injection, schedule: Q01DX009 (ip), vehicle: sodium bicarbonate) is 112 % of control. The T/C is, setting by setting: under setting [15], 124 % of control; under setting [13], 113 % of control; (dose: 150.0 mg/kg/injection, schedule: Q01DX005 (ip), vehicle: saline) 107 % of control; (dose: 150.0 mg/kg/injection, schedule: Q01DX005 (iv), vehicle: saline) 107 % of control; (dose: 150.0 mg/kg/injection, schedule: Q01DX009 (ip), vehicle: saline) 108 % of control; (dose: 150.0 mg/kg/injection, schedule: Q01DX009 (ip), vehicle: sodium bicarbonate) 114 % of control. Besides, the T/C is, setting by setting: (dose: 300.0 mg/kg/injection, schedule: Q01DX005 (ip), vehicle: saline) 109 % of control and 123 % of control; (dose: 300.0 mg/kg/injection, schedule: Q01DX005 (iv), vehicle: saline) 108 % of control and 113 % of control; (dose: 300.0 mg/kg/injection, schedule: Q01DX009 (ip), vehicle: saline) 116 % of control; (dose: 300.0 mg/kg/injection, schedule: Q01DX009 (ip), vehicle: sodium bicarbonate) 120 % of control; (dose: 600.0 mg/kg/injection, schedule: Q01DX005 (ip), vehicle: saline) 107 % of control and 118 % of control; (dose: 600.0 mg/kg/injection, schedule: Q01DX005 (iv), vehicle: saline) 104 % of control and 122 % of control. Also, the T/C was 119 % of control (dose: 600.0 mg/kg/injection, schedule: Q01DX009 (ip), vehicle: saline); 122 % of control (dose: 600.0 mg/kg/injection, schedule: Q01DX009 (ip), vehicle: sodium bicarbonate); 99 % of control (dose: 800.0 mg/kg/injection, schedule: Q01DX009 (ip), vehicle: Klucel (hydroxypropylcellulose) (HPC)).

Regarding `Cc1sc(NCc2ccccc2)c(C#N)c1C`, the T/C runs as follows: (dose: 6.25 mg/kg/injection, schedule: Q01DX009 (ip), vehicle: Klucel (hydroxypropylcellulose) (HPC)) 101 % of control; (dose: 12.5 mg/kg/injection, schedule: Q01DX009 (ip), vehicle: Klucel (hydroxypropylcellulose) (HPC)) 97 % of control; under setting [14], 93 % of control; under setting [15], 86 % of control.

On to `CC(O)CN1C(=O)c2cccc3cc([N+](=O)[O-])cc(c23)C1=O` (stereo unspecified), for which the T/C reads like this: under setting [6], 96 % of control; under setting [7], 104 % of control; under setting [8], 104 % of control.

Source of the values: PubChem BioAssay AID330 (DTP/NCI, 2004).
